Experimental findings from patent publication US9814706B2, “Hydrobromide salt of pridopidine” (Teva Pharmaceuticals International GmbH, priority 2011, dated 2017) are described below.

Counter-ions that a name gives are not always drawn. Like-named read-outs stand apart in the source and are kept apart here.

The conditions of this series: for hygroscopicity / deliquescence by DVS profile (in words): hydrobromide salt. The procedure: DVS analysis was performed on two of the HCl salts of pridopidine (HCl salt of pridopidine batches A and B). A full two cycle sorption and desorption profile was obtained for a third HCl salt of pridopidine (hydrochloride salt of pridopidine batch C).
An additional run was performed in the mid-eighties relative humidity range in order to indentify the transition point in more detail. (See FIG. 9). […] Dynamic vapour sorption (DVS) measurements were conducted using a Q5000 SA from TA instruments.
Prior to the first sorption cycle the sample was equilibrated at 20% RH and the initial weight recorded. Samples were analyzed in an aluminium pan. Humidity was brought down to 0% RH and the sample dried until the weight had stabilized within a given limit. The temperature was held constant at 25° C. Maximum step time was 720 min. Gas flow was 200 cm^3/min.

As to `Br.CCCN1CCC(c2cccc(S(C)(=O)=O)c2)CC1` [Pridopidine hydrobromide, 4-(3-methanesulfonyl-phenyl)-1-propyl-piperidine hydrobromide salt], for the setting “0-95% RH, two sorption/desorption cycles, 25° C.”, the “weight gained between 0 and 95% RH (DVS), lost again during desorption” value is reported as “approximately 0.15%”. The “hygroscopicity / deliquescence by DVS profile (in words)” value (0-95% RH) is “non-hygroscopic and non-deliquescent”; the “hygroscopicity / deliquescence by DVS profile (in words)” value (0-95% RH, listed as NS30016-HBr salt) is given as “non-hygroscopic”. For the same molecule, the “weight gained at the 95% relative humidity (RH) level (DVS)” value (95% RH, 25° C.) was “less than 1%”.

As for `CCCN1CCC(c2cccc(S(C)(=O)=O)c2)CC1` [hydrochloride salt of pridopidine, hydrochloride salt of 4-(3-methanesulfonyl-phenyl)-1-propyl-piperidine, reference compound], the “weight gain at 90% relative humidity (DVS)” value (90% RH step, first sorption cycle) is on record as “approximately 80%”. Besides, the “state of specimen at the end of the DVS cycle” value (additional run with smaller steps in the mid-eighties RH range (80-90-80%)) is reported as “completely dissolved”.
